Measured values reported in PubChem BioAssay (NCI).
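GI50 marks 50% less growth. TGI is the concentration that stops growth completely.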

What was measured:
Experiment in all cases: inhibition of tumour cell growth, NCI panel, 384-well format
786-0 renal = tested on: 786-0 renal
A498 renal = tested on: A498 renal
A549 NSCLC = tested on: A549 NSCLC
ACHN renal = tested on: ACHN renal
BT-549 breast = tested on: BT-549 breast
CAKI-1 renal = tested on: CAKI-1 renal
CCRF-CEM leukemia = tested on: CCRF-CEM leukemia
COLO 205 colon = tested on: COLO 205 colon
DU-145 prostate = tested on: DU-145 prostate
EKVX NSCLC = tested on: EKVX NSCLC
HCC-2998 colon = tested on: HCC-2998 colon
HCT-116 colon = tested on: HCT-116 colon
HCT-15 colon = tested on: HCT-15 colon
HL-60(TB) leukemia = tested on: HL-60(TB) leukemia
HOP-62 NSCLC = tested on: HOP-62 NSCLC
HOP-92 NSCLC = tested on: HOP-92 NSCLC
HS 578T breast = tested on: HS 578T breast
HT29 colon = tested on: HT29 colon
IGROV1 ovarian = tested on: IGROV1 ovarian
K-562 leukemia = tested on: K-562 leukemia
KM12 colon = tested on: KM12 colon
LOX IMVI melanoma = tested on: LOX IMVI melanoma
M14 melanoma = tested on: M14 melanoma
MALME-3M melanoma = tested on: MALME-3M melanoma
MCF7 breast = tested on: MCF7 breast
MDA-MB-231 breast = tested on: MDA-MB-231 breast
MDA-MB-435 melanoma = tested on: MDA-MB-435 melanoma
MDA-MB-468 breast = tested on: MDA-MB-468 breast
MOLT-4 leukemia = tested on: MOLT-4 leukemia
NCI-H226 lung = tested on: NCI-H226 lung
NCI-H23 lung = tested on: NCI-H23 lung
NCI-H322M lung = tested on: NCI-H322M lung
NCI-H460 NSCLC = tested on: NCI-H460 NSCLC
NCI-H522 lung = tested on: NCI-H522 lung
NCI/ADR-RES ovarian = tested on: NCI/ADR-RES ovarian
OVCAR-3 ovarian = tested on: OVCAR-3 ovarian
OVCAR-4 ovarian = tested on: OVCAR-4 ovarian
OVCAR-5 ovarian = tested on: OVCAR-5 ovarian
OVCAR-8 ovarian = tested on: OVCAR-8 ovarian
PC-3 prostate = tested on: PC-3 prostate
RPMI-8226 leukemia = tested on: RPMI-8226 leukemia
RXF 393 renal = tested on: RXF 393 renal
SF-268 CNS = tested on: SF-268 CNS
SF-295 CNS = tested on: SF-295 CNS
SF-539 CNS = tested on: SF-539 CNS
SK-MEL-28 melanoma = tested on: SK-MEL-28 melanoma
SK-MEL-5 melanoma = tested on: SK-MEL-5 melanoma
SK-OV-3 ovarian = tested on: SK-OV-3 ovarian
SN12C renal = tested on: SN12C renal
SNB-19 CNS = tested on: SNB-19 CNS
SNB-75 CNS = tested on: SNB-75 CNS
SW-620 colon = tested on: SW-620 colon
T-47D breast = tested on: T-47D breast
TK-10 renal = tested on: TK-10 renal
U251 glioblastoma = tested on: U251 glioblastoma
UACC-257 melanoma = tested on: UACC-257 melanoma
UACC-62 melanoma = tested on: UACC-62 melanoma
UO-31 renal = tested on: UO-31 renal

Cc1cnc(CNC(=O)c2c(=O)c3ccc(N4CCCN(C)CC4)nc3n3c2sc2ccccc23)cn1
GI50 ([…]-0 renal): 0.359 µM | TGI (786-0 renal): 12.8 µM | GI50 (A498 renal): 0.112 µM | TGI (A498 renal): 1.55 µM | GI50 (A549 NSCLC): 0.0369 µM | TGI (A549 NSCLC): 1.34 µM | GI50 (ACHN renal): 0.0643 µM | TGI (ACHN renal): > 100 µM | GI50 (BT-549 breast): 1.38 µM | TGI (BT-549 breast): > 100 µM | GI50 (CAKI-1 renal): 0.607 µM | TGI (CAKI-1 renal): > 100 µM | GI50 (CCRF-CEM leukemia): 0.0242 µM | TGI (CCRF-CEM leukemia): 0.111 µM | GI50 (COLO 205 colon): 0.244 µM | TGI (COLO 205 colon): > 100 µM | GI50 (DU-145 prostate): 0.49 µM | TGI (DU-145 prostate): 33.5 µM | GI50 (EKVX NSCLC): 34 µM | TGI (EKVX NSCLC): > 100 µM | GI50 (HCC-2998 colon): 1.66 µM | TGI (HCC-2998 colon): 19.2 µM | GI50 (HCT-116 colon): 0.112 µM | TGI (HCT-116 colon): 1.45 µM | GI50 (HCT-15 colon): 0.0877 µM | TGI (HCT-15 colon): 2.76 µM | GI50 (HL-60(TB) leukemia): 0.0586 µM | TGI (HL-60(TB) leukemia): 2.26 µM | GI50 (HOP-62 NSCLC): 0.122 µM | TGI (HOP-62 NSCLC): > 100 µM | GI50 (HOP-92 NSCLC): 0.353 µM | TGI (HOP-92 NSCLC): > 100 µM | GI50 (HS 578T breast): 0.0697 µM | TGI (HS 578T breast): > 100 µM | GI50 (HT29 colon): 0.33 µM | TGI (HT29 colon): > 100 µM | GI50 (IGROV1 ovarian): 0.323 µM | TGI (IGROV1 ovarian): > 100 µM | GI50 (K-562 leukemia): 0.231 µM | TGI (K-562 leukemia): 16.3 µM | GI50 (KM12 colon): 1.03 µM | TGI (KM12 colon): 2.45 µM | GI50 (LOX IMVI melanoma): 0.138 µM | TGI (LOX IMVI melanoma): 1.41 µM | GI50 (M14 melanoma): 0.781 µM | TGI (M14 melanoma): > 100 µM | GI50 (MALME-3M melanoma): 0.806 µM | TGI (MALME-3M melanoma): > 100 µM | GI50 (MCF7 breast): 0.416 µM | TGI (MCF7 breast): 1.75 µM | GI50 (MDA-MB-231 breast): 0.397 µM | TGI (MDA-MB-231 breast): > 100 µM | GI50 (MDA-MB-435 melanoma): 2.9 µM | TGI (MDA-MB-435 melanoma): > 100 µM | GI50 (MDA-MB-468 breast): 12.4 µM | TGI (MDA-MB-468 breast): > 100 µM | TGI (MOLT-4 leukemia): 0.0175 µM | GI50 (NCI-H226 lung): 0.741 µM | TGI (NCI-H226 lung): > 100 µM | GI50 (NCI-H23 lung): 0.714 µM | TGI (NCI-H23 lung): > 100 µM | GI50 (NCI-H322M lung): 0.877 µM | TGI (NCI-H322M lung): > 100 µM | GI50 (NCI-H460 NSCLC): 0.0228 µM | TGI (NCI-H460 NSCLC): 1.12 µM | GI50 (NCI-H522 lung): 19.9 µM | TGI (NCI-H522 lung): > 100 µM | GI50 (NCI/ADR-RES ovarian): > 100 µM | TGI (NCI/ADR-RES ovarian): > 100 µM | GI50 (OVCAR-3 ovarian): 0.462 µM | TGI (OVCAR-3 ovarian): 48.5 µM | GI50 (OVCAR-4 ovarian): 0.383 µM | TGI (OVCAR-4 ovarian): 5.56 µM | GI50 (OVCAR-5 ovarian): 27.7 µM | TGI (OVCAR-5 ovarian): > 100 µM | GI50 (OVCAR-8 ovarian): 0.234 µM | TGI (OVCAR-8 ovarian): > 100 µM | GI50 (PC-3 prostate): 1.6 µM | TGI (PC-3 prostate): 22.3 µM | GI50 (RPMI-8226 leukemia): 0.0583 µM | TGI (RPMI-8226 leukemia): 1.62 µM | GI50 (RXF 393 renal): 0.0806 µM | TGI (RXF 393 renal): > 100 µM | GI50 (SF-268 CNS): 0.0241 µM | TGI (SF-268 CNS): 0.088 µM | GI50 (SF-295 CNS): 0.608 µM | TGI (SF-295 CNS): > 100 µM | GI50 (SF-539 CNS): 0.259 µM | TGI (SF-539 CNS): > 100 µM | GI50 (SK-MEL-28 melanoma): 27 µM | TGI (SK-MEL-28 melanoma): > 100 µM | GI50 (SK-MEL-5 melanoma): 0.172 µM | TGI (SK-MEL-5 melanoma): 48 µM | GI50 (SK-OV-3 ovarian): 1.35 µM | TGI (SK-OV-3 ovarian): > 100 µM | GI50 (SN12C renal): 0.307 µM | TGI (SN12C renal): > 100 µM | GI50 (SNB-19 CNS): 0.322 µM | TGI (SNB-19 CNS): > 100 µM | GI50 (SNB-75 CNS): 0.832 µM | TGI (SNB-75 CNS): > 100 µM | GI50 (SW-620 colon): 0.0991 µM | TGI (SW-620 colon): > 100 µM | GI50 (T-47D breast): 21.5 µM | TGI (T-47D breast): > 100 µM | GI50 (TK-10 renal): 9.17 µM | TGI (TK-10 renal): > 100 µM | GI50 (U251 glioblastoma): 0.517 µM | TGI (U251 glioblastoma): > 100 µM | GI50 (UACC-257 melanoma): 7.63 µM | TGI (UACC-257 melanoma): > 100 µM | GI50 (UACC-62 melanoma): 0.175 µM | TGI (UACC-62 melanoma): > 100 µM | GI50 (UO-31 renal): 1.54 µM | TGI (UO-31 renal): > 100 µM
